From patent US20260109707A1, “HETEROBIFUNCTIONAL COMPOUNDS AND METHODS OF TREATING DISEASE” (Halda Therapeutics OpCo. Inc., priority 2022, published 2026)
Where two headings read alike, the source gives them in different places.

Legend:
[1] = test system: T-Rex 293 cell line SC3 cells having increased expression of androgen receptor protein due to exposure to doxycycline; test: Cellular growth inhibition assay, T-Rex 293 SC3 cells with doxycycline (CellTiter-Glo, 72 hours); format: cell-based; conditions: T-Rex 293 SC3 cells with increased androgen receptor expression due to doxycycline (10 ng/mL)
Experimental: (§1) The following types of cells were prepared for this experiment: (i) a T-Rex 293 cell line having increased expression of androgen receptor protein due to exposure to doxycycline and (ii) a T-Rex 293 cell line lacking increased expression of androgen receptor protein. Ability of the test compounds to inhibit proliferation of the foregoing cell types was evaluated according to the procedures set forth below.
(§2) The doxycycline-inducible androgen receptor protein expressing cell line was established using the following protocol: T-Rex 293 cells were purchased from Invitrogen (Cat #R71007) and transfected using Lipofectamine 2000 with the wild-type androgen receptor protein sequence cloned into the pcDNA4/TO vector. Transfected cells were selected using 400 μg/mL Zeocin (Invitrogen Cat #R25001). Following selection, single clones were raised and maintained in Dulbecco's Modified Eagle Medium (DMEM) supplemented with 10% w/w Tetracycline-free fetal bovine serum (FBS) and 250 μg/mL Zeocin. Clones were analyzed for expression of androgen receptor protein in the presence and absence of 10 ng/mL doxycycline (Sigma Cat #D9891), and a single doxycycline-inducible clone (hereinafter “SC3”) was selected for use in downstream assays.
(§3) The SC3 cells were seeded on poly-D-lysine coated, black clear-bottom 384-well plates at 2500/well, in 25 μL Phenol Red Free Dulbecco's Modified Eagle Medium (DMEM) supplemented with 10% w/w charcoal-dextran treated fetal bovine serum (FBS) and 1% w/w pen-strep, with or without 10 ng/mL doxycycline. Pen-Strep is a commercially available mixture of penicillin G and streptomycin, which is used in mammalian cell culture media to prevent bacterial contamination. Phenol Red Free Dulbecco's Modified Eagle Medium (DMEM) supplemented with 10% w/w charcoal-dextran treated fetal bovine serum (FBS) and 1% w/w pen-strep, with or without 10 ng/mL doxycycline is herein referred to as Treatment Medium. Following seeding of cells in the plates, the plates were spun at 300×g for 30 seconds, then equilibrated to room temperature for 30 minutes, and then deposited in a humidified tissue culture incubator maintained at 37° C. with 5% CO2.
(§4) At 24 hours after seeding of the cells, dilutions of test compound were prepared in DMSO and dissolved in Treatment Medium, to achieve a final DMSO concentration of 0.5% w/w, thereby providing the Test Compound Solution. A 25 μL aliquot of the Test Compound Solution was added to cells in the well plates. An equal volume of a solution containing DMSO and Treatment Medium was used as a negative control. Following treatment of cells with Test Compound Solution or said equal volume of a solution containing DMSO and Treatment Medium, the plates were spun at 300×g for 30 seconds, and then left in an incubator for 72 hours.
(§5) At the end of the treatment duration, cell viability was quantified with CellTiter-Glo 2.0 reagent (Promega Cat #G9243). For this purpose, plates were equilibrated to room temperature for 30 minutes, and then 25 μL of CellTiter-Glo 2.0 reagent was added to cells in the plate wells. Plates were then agitated on a shaker for two minutes at 500 rpm and subsequently incubated at room temperature for 10 minutes. Following incubation, the plates were spun at 3000×g for 30 seconds, then sealed with an optical adhesive cover, and luminescence readings were measured with an EnVision Plate Reader.
(§6) Data was normalized using zero luminescence for baseline. A four-parameter non-linear regression curve fit was applied to dose-response data in GraphPad Prism data analysis software to determine the half-maximal growth inhibitory concentration (GI50) for each test compound.

[2] = test system: T-Rex 293 cell line SC3 cells lacking increased expression of androgen receptor protein; test: Cellular growth inhibition assay, T-Rex 293 SC3 cells without doxycycline (CellTiter-Glo, 72 hours); format: cell-based; conditions: T-Rex 293 cell line SC3 cells not exposed to doxycycline (lacking increased androgen receptor expression)
Experimental: as §1, §2, §3, §4, §5, §6

VCaP cells = test: Cellular growth inhibition assay for VCaP cells (CellTiter-Glo, 72 hours); format: cell-based, human
Experimental: VCaP cells were purchased from American Type Cell Culture (ATCC Cat #CRL2876) and then seeded on poly-D-lysine coated, black clear-bottom 384-well plates at 5000/well in 25 μL Dulbecco's Modified Eagle Medium (DMEM) supplemented with 10% w/w Fetal bovine serum (FBS) and 1% w/w Pen-Strep. Pen-Strep is a commercially available mixture of penicillin G and streptomycin, which is used in mammalian cell culture media to prevent bacterial contamination. Dulbecco's Modified Eagle Medium (DMEM) supplemented with 10% w/w fetal bovine serum (FBS) and 1% w/w Pen-Strep is herein referred to as Treatment Medium. Following seeding of cells in the plates, the plates were spun at 300×g for 30 seconds, then equilibrated to room temperature for 30 minutes, and then deposited in a humidified tissue culture incubator maintained at 37° C. with 5% C0-2.
as §4, §5, §6

Row | SMILES | GI50 (VCaP cells; Homo sapiens, VCaP, 72 h) [nM] | GI50 (VCaP cells) [nM] | GI50 ([1]; 72 h) [nM] | GI50 ([2]; 72 h) [nM] | GI50 [1] [nM] | GI50 [2] [nM]
1 | CCNC(=O)C[C@@H]1N=C(c2ccc(OC3CN(CC4CCN(c5ccc(C(=O)N[C@H]6CC[C@H](Oc7ccc(C#N)c(Cl)c7)CC6)nn5)CC4)C3)cc2)c2c(sc(C)c2C)-n2c(C)nnc21 [I-45] | 500 to 1500 |  | < 500 | 500 to 1500 |  | 
2 | CCNC(=O)C[C@@H]1N=C(c2ccc(OC3CC(N(C)C4CCN(c5ccc(C(=O)N[C@H]6CC[C@H](Oc7ccc(C#N)c(Cl)c7)CC6)nn5)CC4)C3)cc2)c2c(sc(C)c2C)-n2c(C)nnc21 (stereo partly drawn) [I-46] | < 500 |  | < 500 | 500 to 1500 |  | 
3 | CCNC(=O)C[C@@H]1N=C(c2ccc(N3CC(N(C4CC4)C4CN(c5ccc(C(=O)N[C@H]6CC[C@H](Oc7ccc(C#N)c(Cl)c7)CC6)nn5)C4)C3)cc2)c2c(sc(C)c2C)-n2c(C)nnc21 [I-56] | < 500 |  | < 500 | < 500 |  | 
4 | CCNC(=O)C[C@@H]1N=C(c2ccc(N3CC(OC4CCN(c5ccc(C(=O)N[C@H]6CC[C@H](Oc7ccc(C#N)c(Cl)c7)CC6)nn5)CC4)C3)cc2)c2c(sc(C)c2C)-n2c(C)nnc21 [I-57] | < 500 |  | < 500 | < 500 |  | 
5 | CCNC(=O)C[C@@H]1N=C(c2ccc(N3CCC(OC4CN(c5ccc(C(=O)N[C@H]6CC[C@H](Oc7ccc(C#N)c(Cl)c7)CC6)nn5)C4)CC3)cc2)c2c(sc(C)c2C)-n2c(C)nnc21 [I-58] | < 500 |  | < 500 | 500 to 1500 |  | 
6 | CCNC(=O)C[C@@H]1N=C(c2ccc(N3CC(N(C)C4CN(c5ccc(C(=O)N[C@H]6CC[C@H](Oc7ccc(C#N)c(Cl)c7)CC6)nn5)C4)C3)cc2)c2c(sc(C)c2C)-n2c(C)nnc21 [I-61] | < 500 |  | < 500 | > 3000 |  | 
7 | CCNC(=O)C[C@@H]1N=C(c2ccc(N3CC(N(C)C4CCN(c5ccc(C(=O)N[C@H]6CC[C@H](Oc7ccc(C#N)c(Cl)c7)CC6)nn5)CC4)C3)cc2)c2c(sc(C)c2C)-n2c(C)nnc21 [I-62] | < 500 |  | < 500 | > 3000 |  | 
8 | CCNC(=O)C[C@@H]1N=C(c2ccc(N3CC(N(C(C)C)C4CN(c5ccc(C(=O)N[C@H]6CC[C@H](Oc7ccc(C#N)c(Cl)c7)CC6)nn5)C4)C3)cc2)c2c(sc(C)c2C)-n2c(C)nnc21 [I-64] | < 500 |  | < 500 | 500 to 1500 |  | 
9 | CCNC(=O)C[C@@H]1N=C(c2ccc(N(C)C3CN(c4ccc(C(=O)N[C@H]5CC[C@H](Oc6ccc(C#N)c(Cl)c6)CC5)nn4)C3)cc2)c2c(sc(C)c2C)-n2c(C)nnc21 [I-65] | 500 to 1500 |  | < 500 | 500 to 1500 |  | 
10 | CCNC(=O)C[C@@H]1N=C(c2ccc(N3CC(CC4CN(c5ccc(C(=O)N[C@H]6CC[C@H](Oc7ccc(C#N)c(Cl)c7)CC6)nn5)C4)C3)cc2)c2c(sc(C)c2C)-n2c(C)nnc21 [I-66] | < 500 |  | < 500 | 500 to 1500 |  | 
11 | CCNC(=O)C[C@@H]1N=C(c2ccc(N(C)C3CC(OC4CCN(c5ncc(C(=O)N[C@H]6CC[C@H](Oc7ccc(C#N)c(Cl)c7)CC6)cn5)CC4)C3)cc2)c2c(sc(C)c2C)-n2c(C)nnc21 (stereo partly drawn) [I-69] | < 500 |  | < 500 | 500 to 1500 |  | 
12 | CCNC(=O)C[C@@H]1N=C(c2ccc(N3CC(OC4CN(c5ccc(C(=O)N[C@H]6CC[C@H](Oc7ccc(C#N)c(Cl)c7)CC6)nn5)C4)C3)cc2)c2c(sc(C)c2C)-n2c(C)nnc21 [I-70] | < 500 |  | < 500 | 500 to 1500 |  | 
13 | Cc1sc2c(c1C)C(c1ccc(N3CC(C4CCN(c5ccc(C(=O)N[C@H]6CC[C@H](Oc7ccc(C#N)c(Cl)c7)CC6)nn5)CC4)C3)cc1)=NCc1nnc(C)n1-2 [I-451] | 500 to 1500 |  | < 500 | > 3000 |  | 
14 | Cc1sc2c(c1C)C(c1ccc(C#CC3CC4(C3)CN(c3ccc(C(=O)N[C@H]5CC[C@H](Oc6ccc(C#N)c(Cl)c6)CC5)nn3)C4)cn1)=NC(C)c1nnc(C)n1-2 (stereo partly drawn) [I-457] | < 500 |  | < 500 | > 3000 |  | 

Continued, in another order:

Row | GI50 (VCaP cells; Homo sapiens, VCaP, 72 h) [nM] | GI50 (VCaP cells) [nM] | SMILES | GI50 ([1]; 72 h) [nM] | GI50 ([2]; 72 h) [nM] | GI50 [1] [nM] | GI50 [2] [nM]
15 | < 500 |  | Cc1sc2c(c1C)C(c1ccc(OC3CC4(CCN(c5ccc(C(=O)N[C@H]6CC[C@H](Oc7ccc(C#N)c(Cl)c7)CC6)nn5)CC4)C3)nc1)=NC1(CC1)c1nnc(C)n1-2 [I-443] | < 500 | > 3000 |  | 
16 | < 500 |  | Cc1sc2c(c1C)C(c1ccc(CC3CC4(CCN(c5ccc(C(=O)N[C@H]6CC[C@H](Oc7ccc(C#N)c(Cl)c7)CC6)nn5)CC4)C3)cc1)=NC1(CC1)c1nnc(C)n1-2 [I-444] | < 500 | > 3000 |  | 
17 |  | < 500 | Cc1sc2c(c1C)C(c1ccc(OCC3CC4(CCCN(c5ccc(C(=O)N[C@H]6CC[C@H](Oc7ccc(C#N)c(Cl)c7)CC6)nn5)C4)C3)cc1)=NCc1nnc(C)n1-2 (stereo partly drawn) [I-446] |  | > 3000 | < 500 | 
18 |  | > 3000 | Cc1sc2c(c1C)C(c1ccc(OCC3CC4(CCCN(c5ccc(C(=O)N[C@H]6CC[C@H](Oc7ccc(C#N)c(Cl)c7)CC6)nn5)C4)C3)cc1)=NCc1nnc(C)n1-2 (stereo partly drawn) [I-447] |  |  | < 500 | > 3000
19 | 1500 to 3000 |  | Cc1sc2c(c1C)C(c1ccc(N3CCC4(CCCN(c5ccc(C(=O)N[C@H]6CC[C@H](Oc7ccc(C#N)c(Cl)c7)CC6)nn5)C4)CC3)nc1)=NC1(CC1)c1nnc(C)n1-2 [I-448] | < 500 | > 3000 |  | 
20 | > 3000 |  | Cc1sc2c(c1C)C(c1ccc(N3CCC4(CC3)CCN(c3ccc(C(=O)N[C@H]5CC[C@H](Oc6ccc(C#N)c(Cl)c6)CC5)nn3)C4)nc1)=NCc1nnc(C)n1-2 [I-449] | < 500 | > 3000 |  | 
21 | < 500 |  | C#Cc1ccc(O[C@H]2CC[C@H](NC(=O)c3ccc(N4CCC(C5CN(c6ccc(C7=NC8(CC8)c8nnc(C)n8-c8sc(C)c(C)c87)cc6)C5)CC4)nn3)CC2)cc1Cl [I-450] | < 500 | > 3000 |  | 
22 | < 500 |  | Cc1sc2c(c1C)C(c1ccc(OC3CC4(C3)CC3(CCN(c5ccc(C(=O)N[C@H]6CC[C@H](Oc7ccc(C#N)c(Cl)c7)CC6)nn5)CC3)C4)cc1)=NC1(CC1)c1nnc(C)n1-2 [I-452] | < 500 | > 3000 |  | 
23 | < 500 |  | Cc1sc2c(c1C)C(c1ccc(OC3CC4(C3)CC3(CCN(c5ccc(C(=O)N[C@H]6CC[C@H](Oc7ccc(C#N)c(Cl)c7)CC6)nn5)CC3)C4)cc1)=NCc1nnc(C)n1-2 [I-453] | < 500 | > 3000 |  | 
24 | < 500 |  | Cc1sc2c(c1C)C(c1ccc(C#CC3CC4(CCCN(c5ccc(C(=O)N[C@H]6CC[C@H](Oc7ccc(C#N)c(Cl)c7)CC6)nn5)C4)C3)cn1)=NC(C)c1nnc(C)n1-2 (stereo partly drawn) [I-454] |  |  | < 500 | > 3000
25 |  | < 500 | Cc1sc2c(c1C)C(c1ccc(C#CC3CC4(CCCN(c5ccc(C(=O)N[C@H]6CC[C@H](Oc7ccc(C#N)c(Cl)c7)CC6)nn5)C4)C3)cn1)=NC(C)c1nnc(C)n1-2 (stereo partly drawn) [I-455] |  |  | < 500 | > 3000
26 |  | 500 to 1500 | Cc1sc2c(c1C)C(c1ccc(C#CC3CC4(CCCN(c5ccc(C(=O)N[C@H]6CC[C@H](Oc7ccc(C#N)c(Cl)c7)CC6)nn5)C4)C3)cn1)=NC(C)c1nnc(C)n1-2 (stereo partly drawn) [I-456] |  |  | < 500 | 500 to 1500
